Results as given in patent publication US5696151A, “Compounds useful for the inhibition of the replication of HIV-1 and HIV-1 mutants” (priority 1995, dated 1997).
Converted amounts (≈) assume the structure as drawn.

Experiments:
Format in all cases: cell-based
HIV-1(IIIB) = test: Inhibition of HIV-1 induced syncytium formation in CEM cells, wild type; details: Table 2B, WT = HIV-1(IIIB), day 4, averages of 2 to 3 independent experiments; for EC50: Human immunodeficiency virus 1, IIIB, CCRF-CEM, 96 h, read-out: Antiviral Activity of Comparative Compounds EC50, WT
Summary of the method: (§1)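 Syncytium inhibition assay in CEM cells infected with HIV-1(IIIB) or RT mutants, compound tested in 5-fold dilutions, scored by microscopy on day 4.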

HIV-1/106-Ala = test: Inhibition of HIV-1 induced syncytium formation in CEM cells, RT mutant 106-Ala; details: Table 2B, day 4, averages of 2 to 3 independent experiments; for EC50: Human immunodeficiency virus 1, CCRF-CEM, 96 h, read-out: Antiviral Activity of Comparative Compounds EC50, 106-Ala
Summary of the method: as §1

HIV-1/181-Cys = test: Inhibition of HIV-1 induced syncytium formation in CEM cells, RT mutant 181-Cys; details: Table 2B, day 4, averages of 2 to 3 independent experiments; for EC50: Human immunodeficiency virus 1, CCRF-CEM, 96 h, read-out: Antiviral Activity of Comparative Compounds EC50, 181-Cys
Summary of the method: as §1

in vitro = details: human, cem cells, CC50 (50% cytostatic concentration), Table 2B; CEM cell proliferation; averages of 2 to 3 independent experiments
Summary of the method: (§2)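 In CEM cells, the cytostatic value is the compound concentration giving 50% inhibition of cell proliferation. Parallel work used HIV-1(IIIB) and culture-selected resistant strains Lys-138, 181-Cys, 188-His and 188-Leu.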

HIV-1/188-Leu = test: Inhibition of HIV-1 induced syncytium formation in CEM cells, RT mutant 188-Leu; details: Human immunodeficiency virus 1, CCRF-CEM, 96 h, Table 2B, day 4, averages of 2 to 3 independent experiments, read-out: Antiviral Activity of Comparative Compounds EC50, 188-Leu
Source text: (§3) CEM cells were obtained from the American Tissue Cell Culture Collection (Rockville, Md.). HIV-1(IIIB) was originally obtained from the culture supernatant of persistently HIV-1-infected H9 cells and was provided by R. C. Gallo and M. Popovic (National Cancer Institute, National Institutes of Health, Bethesda, Md.). […] 67: 5353-5359 (1993); HIV-1/Lys-138 ("Lys-138") was selected for resistance against TSAO-m^3T as described in Balzarini et al, Virology 192: 246-253 (1993) and Balzarini et al, Proc. Nat. Acad. Sci. USA 90: 6952-6956 (1993); HIV-1/181-Cys ("181-Cys") was selected for resistance against pyridinone L-697,661 as described in Balzarini et al, Virology 192: 246-253 (1993); and HIV-1/188-His ("188-His") was selected for resistance against HEPT as described in Balzarini et al, Mol. Pharmocol. 44: 694-701 (1993). 188-His was then further converted to HIV-1/188-Leu "188-Leu") upon further passage in cell culture in the absence of the HEPT.
(§4) CEM cells were suspended at ≈300,000 cells per ml of culture medium and infected with approximately 100 CCID50 (CCID50 being the 50% cell culture infective dose) of HIV-1(IIIB) or one of the HIV-1 RT mutant strains described above. Then 100 μl of the infected cell suspensions was added to 200 μl microtiter plate wells containing 100 μl of appropriate serial (5-fold) dilutions of the test compounds. The inhibitory effect of the test compounds on HIV-1 induced syncytium formation in CEM cells was examined microscopically on day 4 post infection.

HIV-1/100-Ile = test: Inhibition of HIV-1 induced syncytium formation in CEM cells, RT mutant 100-Ile; details: Table 2B, day 4, averages of 2 to 3 independent experiments; for EC50: Human immunodeficiency virus 1, CCRF-CEM, 96 h, read-out: Antiviral Activity of Comparative Compounds EC50, 100-Ile
Summary of the method: as §1

HIV-1/Lys-138 = test: Inhibition of HIV-1 induced syncytium formation in CEM cells, RT mutant 138-Lys; details: Table 2B, day 4, averages of 2 to 3 independent experiments; for EC50: Human immunodeficiency virus 1, CCRF-CEM, 96 h, read-out: Antiviral Activity of Comparative Compounds EC50, 138-Lys
Summary of the method: as §1

HIV-1/103-Asn = test: Inhibition of HIV-1 induced syncytium formation in CEM cells, RT mutant 103-Asn; details: Human immunodeficiency virus 1, CCRF-CEM, 96 h, Table 2B, day 4, averages of 2 to 3 independent experiments, read-out: Antiviral Activity of Comparative Compounds EC50, 103-Asn
Source text: as §3, §4

CEM cells = test: in vitro; details: Table 2B; CEM cell proliferation; averages of 2 to 3 independent experiments
Summary of the method: as §2

| Compound | EC50 (HIV-1(IIIB)) [µg/mL] | EC50 (HIV-1/106-Ala) [µg/mL] | EC50 (HIV-1/181-Cys) [µg/mL] | CC50 (in vitro) [µg/mL] | EC50 (HIV-1/188-Leu) [µg/mL] | EC50 (HIV-1/100-Ile) [µg/mL] | EC50 (HIV-1/Lys-138) [µg/mL] | EC50 (HIV-1/103-Asn) [µg/mL] | Antiviral Activity of Comparative Compounds EC50, WT (HIV-1(IIIB)) [µg/mL] | Antiviral Activity of Comparative Compounds EC50, 106-Ala (HIV-1/106-Ala) [µg/mL] | Antiviral Activity of Comparative Compounds EC50, 181-Cys (HIV-1/181-Cys) [µg/mL] | CC50 (50% cytostatic concentration) (CEM cells) [µg/mL] | Antiviral Activity of Comparative Compounds EC50, 100-Ile (HIV-1/100-Ile) [µg/mL] | Antiviral Activity of Comparative Compounds EC50, 138-Lys (HIV-1/Lys-138) [µg/mL] |
| --- | --- | --- | --- | --- | --- | --- | --- | --- | --- | --- | --- | --- | --- | --- |
| Cc1occc1C(=S)Nc1ccc(Cl)c(OCC(C)(C)C)c1 [Compound 39] | 0.15 (≈ 0.444 µM) | > 2 | ≥ 2 | 4.1 (≈ 12.1 µM) | > 2 | 1.4 (≈ 4.14 µM) | 0.5 (≈ 1.48 µM) | 0.7 (≈ 2.07 µM) |  |  |  |  |  |  |
| CC=CCOc1cc(NC(=O)c2ccoc2C)ccc1Cl [Compound 40] | 0.24 (≈ 0.785 µM) | > 2 | > 2 | 5.8 (≈ 19 µM) | > 2 | 1.4 (≈ 4.58 µM) | 1.2 (≈ 3.92 µM) | ≥ 2 |  |  |  |  |  |  |
| CC1=C(C(=O)Nc2ccc(Cl)c(OCCC(C)C)c2)SCCO1 [Compound 41] | 0.28 (≈ 0.787 µM) | ≥ 2 | ≥ 2 | > 100 | > 2 | ≥ 2 | ≥ 2 | ≥ 2 |  |  |  |  |  |  |
| Cc1sccc1C(=O)Nc1ccc(Cl)c(OCC2CCCC2)c1 [Compound 42] | 0.36 (≈ 1.03 µM) | ≥ 2 | ≥ 2 | 5 (≈ 14.3 µM) | > 2 | ≥ 2 | ≥ 2 | ≥ 2 |  |  |  |  |  |  |
| CC=CCOc1cc(NC(=O)C2=C(CC)OCCS2)ccc1Cl [Compound 43] | 0.65 (≈ 1.84 µM) | 4.5 (≈ 12.7 µM) | > 2 | 11 (≈ 31.1 µM) | > 2 | 1.2 (≈ 3.39 µM) | 1.3 (≈ 3.67 µM) | 1.3 (≈ 3.67 µM) |  |  |  |  |  |  |
| Cc1occc1C(=S)Nc1ccc(Cl)c(OCCC(C)C)c1 [Compound 44] | 0.0073 (≈ 0.0216 µM) | 0.06 (≈ 0.178 µM) | 0.08 (≈ 0.237 µM) | > 100 | > 10 | 0.035 (≈ 0.104 µM) | 0.03 (≈ 0.0888 µM) | 0.08 (≈ 0.237 µM) |  |  |  |  |  |  |
| CC=CCOc1cc(NC(=O)c2ccsc2C)ccc1Cl [Compound 45] | 0.15 (≈ 0.466 µM) | 0.85 (≈ 2.64 µM) | 0.5 (≈ 1.55 µM) | 87 (≈ 270 µM) | > 10 | 0.6 (≈ 1.86 µM) | 0.65 (≈ 2.02 µM) | 0.95 (≈ 2.95 µM) |  |  |  |  |  |  |
| Cc1occc1C(=S)Nc1ccc(Cl)c(OC(=O)OC(C)C)c1 [Compound 46] | 0.37 (≈ 1.05 µM) | 3 (≈ 8.48 µM) | 5.5 (≈ 15.5 µM) | 25 (≈ 70.7 µM) | ≥ 2 | 4.5 (≈ 12.7 µM) | 0.6 (≈ 1.7 µM) | 4 (≈ 11.3 µM) |  |  |  |  |  |  |
| CON=Cc1cc(NC(=O)c2ccoc2C)ccc1OC [Compound 47] | 0.23 (≈ 0.798 µM) | ≥ 10 | ≥ 10 | > 100 | ≥ 10 | ≥ 10 | ≥ 10 | ≥ 10 |  |  |  |  |  |  |
| Cc1sccc1C(=O)Nc1ccc(Cl)c(C(=O)OC2CCCCC2)c1 [Compound 58] |  |  |  |  |  |  |  |  | 0.19 | 7.0 | 5.0 | 6.5 (≈ 17.2 µM) | 5.5 | 6.0 |
| Cc1sccc1C(=S)Nc1ccc(Cl)c(C(=O)OC2CCCCC2)c1 [Compound 59] |  |  |  |  |  |  |  |  | 0.09 | 0.60 | 0.35 | 15 (≈ 38.1 µM) | 0.65 | 0.40 |
| Cc1occc1C(=S)Nc1ccc(Cl)c(C=NOC(C)(C)C)c1 [Compound 114] |  |  |  |  |  |  |  |  | 0.05 | 0.13 | 0.075 | 5.8 (≈ 16.5 µM) | 0.085 | 0.075 |
